“And” between values parts separate entries of the source, which are not always exact repeats. Equal entries are not always repeated.
Legend:
[1] = test system: corticosterone-treated mice; assay: spontaneous locomotor activity, chronic administration; type: in vivo; conditions: 6 min session
Description: The doses and route of administration of the studied compounds were based on our previous experiments. […] Mice were injected with corticosterone (s.c., 20 mg/kg) at random times during the light phase for 21 consecutive days (Fig. 1b). The dose and route of administration of corticosterone was based on studies performed by Zhao and colleagues. Thirty minutes before, corticosterone injection mice were given (i.p.) saline, HBK-14 (1.25 or 2.5 mg/kg), HBK-15 (0.625 or 1.25 mg/kg), or fluoxetine (10 mg/kg) (Fig. 1b). Control mice received (i.p.) saline and 30 min later saline containing 0.1% dimethyl sulfoxide (DMSO) and 0.1% Tween-80 (s.c.). The experimental groups consisted of eight randomly selected animals. After the end of the procedure, animals were tested in the sucrose preference test, forced swim test, elevated plus maze test, and spontaneous locomotor activity test. Following behavioral testing, rodents were scarified and their hippocampi collected for biochemical analysis. The locomotor activity was performed as previously described. Locomotor activity was recorded individually for each mouse using activity cages made of clear Perspex (40 cm × 40 cm × 31 cm, Activity Cage 7441, Ugo Basile, Italy). The cages were supplied with I.R. horizontal beam emitters connected to a counter for the recording of light-beam interruptions. Each mouse was placed in a cage for a 30-min habituation period. […] The cages were disinfected with 70% ethanol after each mouse.

[2] = test system: corticosterone-treated mice; assay: sucrose preference test, chronic administration, corticosterone model; type: in vivo; conditions: for effect on corticosterone-induced decrease in sucrose intake: 21 days
Description: The dose and route of administration of corticosterone was based on studies performed by Zhao and colleagues. Thirty minutes before, corticosterone injection mice were given (i.p.) saline, HBK-14 (1.25 or 2.5 mg/kg), HBK-15 (0.625 or 1.25 mg/kg), or fluoxetine (10 mg/kg) (Fig. 1b). Control mice received (i.p.) saline and 30 min later saline containing 0.1% dimethyl sulfoxide (DMSO) and 0.1% Tween-80 (s.c.). The experimental groups consisted of eight randomly selected animals. After the end of the procedure, animals were tested in the sucrose preference test, forced swim test, elevated plus maze test, and spontaneous locomotor activity test. Following behavioral testing, rodents were scarified and their hippocampi collected for biochemical analysis. The sucrose preference test was conducted according to the slightly modified methods described by Liu and colleagues and Filho and colleagues. The test was performed before and after the administration of corticosterone. Briefly, before the proper test, mice were housed singly and given 72 h training to acclimate to the test procedures. In the first 24 h, access ad libitum to two feeding bottles of 1% (w/v) sucrose solution was given to each mouse. After 24 h, one bottle was replaced with tap water for the next 24 h. Then, mice were deprived of water and food for the third 24 h. On the test day, the weight of each bottle (1% sucrose solution and tap water) was recorded. Test animals were then given the bottles of 1% sucrose and water for 24 h. The consumed liquid weight was measured based on the weight of each bottle of fluids after sucrose preference test minus the original starting weight. The percentage of sucrose intake was calculated using the following equation: %Sucrose intake=Sucrose intake/Sucrose intake+water intake⋅100%

[3] = test system: NGF level in the hippocampus; assay: NGF level in the hippocampus (ELISA), chronic administration; type: in vivo, mice; conditions: for effect on corticosterone-induced decrease in NGF level in the hippocampus: 21 days
Description: (§1) The doses and route of administration of the studied compounds were based on our previous experiments. […] Mice were injected with corticosterone (s.c., 20 mg/kg) at random times during the light phase for 21 consecutive days (Fig. 1b). The dose and route of administration of corticosterone was based on studies performed by Zhao and colleagues. Thirty minutes before, corticosterone injection mice were given (i.p.) saline, HBK-14 (1.25 or 2.5 mg/kg), HBK-15 (0.625 or 1.25 mg/kg), or fluoxetine (10 mg/kg) (Fig. 1b). Control mice received (i.p.) saline and 30 min later saline containing 0.1% dimethyl sulfoxide (DMSO) and 0.1% Tween-80 (s.c.). The experimental groups consisted of eight randomly selected animals. After the end of the procedure, animals were tested in the sucrose preference test, forced swim test, elevated plus maze test, and spontaneous locomotor activity test. Following behavioral testing, rodents were scarified and their hippocampi collected for biochemical analysis. After the behavioral assessments, mice were sacrificed, and their brains were rapidly removed and chilled in an ice-cold saline solution. The hippocampi were dissected on a cold plate, frozen, and stored at −80 °C until assay. On the day of experiments, tissues were thawed on ice and homogenized (1:9 w/v) in phosphate-buffered saline (4 °C) and protease inhibitor cocktail was added. The 10% homogenates were prepared and homogenized for 30 s with TissueRuptor homogenizer. The homogenized tissues were centrifuged (2500×g at 4 °C for 20 min), and the supernatants were collected for further assays. Protein concentrations of BDNF and NGF in homogenates from hippocampi were determined using the enzyme-linked immunosorbent assay (ELISA) kits (BDNF: DZE201020014, SunRed Biotechnology Company; NGF: MBS825100, MyBioSource) according to the manufacturer’s instructions. […] The samples were analyzed in duplicates, and the mean concentrations were calculated. […] The intensity of the color was read at 450 nm. Absorbance was measured in a multifunction plate reader (POLARstar Omega, BMG Labtech, Germany). […]

[4] = test system: corticosterone-treated mice; assay: spontaneous locomotor activity, single administration; type: in vivo; conditions: 4 min
Description: Mice were injected with corticosterone (s.c., 20 mg/kg) at random times during the light phase for consecutive 21 days (Fig. 1c). The dose and route of administration of corticosterone were based on studies performed by Zhao and colleagues. […] Control mice received (i.p.) saline. The experimental groups consisted of eight randomly selected animals. We chose the dose of HBK-15 that was active in the chronic experiments (i.e., 1.25 mg/kg). The dose of ketamine was based on the studies performed by Pazini and colleagues. Animals were tested in the forced swim test and spontaneous locomotor activity test. After behavioral testing, mice were scarified and their hippocampi collected for biochemical analysis.
The locomotor activity was performed as previously described. Locomotor activity was recorded individually for each mouse using activity cages made of clear Perspex (40 cm × 40 cm × 31 cm, Activity Cage 7441, Ugo Basile, Italy). The cages were supplied with I.R. horizontal beam emitters connected to a counter for the recording of light-beam interruptions. Each mouse was placed in a cage for a 30-min habituation period. After that time, the number of crossings of photobeams was measured for 6 min (chronic studies) or for 4 min (acute experiments; i.e., the time equal to the observation period in the forced swim test). The cages were disinfected with 70% ethanol after each mouse.

[5] = test system: BDNF level in the hippocampus; assay: BDNF level in the hippocampus (ELISA), chronic administration; type: in vivo, mice; conditions: for effect on corticosterone-induced decrease in BDNF level in the hippocampus: 21 days
Description: as §1

[6] = 1.25 mg/kg i.p. 21 days + corticosterone
[7] = corticosterone 20 mg/kg s.c. 21 days + saline

SMILES: COc1ccccc1N1CCN(CCOCCOc2c(C)cccc2C)CC1.Cl [HBK-14, 1-[(2,6-Dimethylphenoxy)ethoxyethyl]-4-(2-methoxyphenyl)piperazine hydrochloride]
- Number of crossings ± S.E.M [1, 6]: 406.3 ± 64.2
- Number of crossings ± S.E.M ([1]; 2.5 mg/kg i.p. 21 days + corticosterone): 400.8 ± 55.8
- effect on corticosterone-induced decrease in sucrose intake ([2]; 1.25 or 2.5 mg/kg i.p.): inactive

SMILES: CNCCC(Oc1ccc(C(F)(F)F)cc1)c1ccccc1 (stereo not shown) [fluoxetine, reference compound]
- Number of crossings ± S.E.M ([1]; 10 mg/kg i.p. 21 days + corticosterone): 510.3 ± 54.0 and 423.3 ± 47.3
- effect on corticosterone-induced decrease in NGF level in the hippocampus ([3]; 10 mg/kg i.p.): protected corticosterone-treated mice from the decrease in the NGF level
- Number of crossings ± S.E.M ([4]; single i.p. in corticosterone-treated mice): 231.9 ± 21.9
- effect on corticosterone-induced decrease in BDNF level in the hippocampus ([5]; 10 mg/kg i.p.): protected corticosterone-treated mice from the decrease in the BDNF level
- effect on corticosterone-induced decrease in sucrose intake ([2]; 10 mg/kg i.p.): prevented the decrease in sucrose intake

SMILES: C[C@]12C[C@H](O)[C@H]3[C@@H](CCC4=CC(=O)CC[C@@]43C)[C@@H]1CC[C@@H]2C(=O)CO [corticosterone]
- Number of crossings ± S.E.M [1, 7]: 343.4 ± 27.3 and 394.5 ± 67.1
- decrease in NGF level in the hippocampus vs control [3, 7]: 35%
- Number of crossings ± S.E.M [4, 7]: 230.7 ± 15.8
- decrease in BDNF level in the hippocampus vs control [5, 7]: 44.0%
- decrease in percentage intake of sucrose solution vs control [2, 7]: 17% and 21%

SMILES: COc1ccccc1N1CCN(CCOCCOc2c(C)cccc2Cl)CC1.Cl [HBK-15, 1-[(2-chloro-6-methylphenoxy)ethoxyethyl]-4-(2-methoxyphenyl)piperazine hydrochloride]
- Number of crossings ± S.E.M ([1]; 0.625 mg/kg i.p. 21 days + corticosterone): 466.1 ± 84.8
- Number of crossings ± S.E.M [1, 6]: 478.9 ± 78.8
- effect on corticosterone-induced decrease in NGF level in the hippocampus ([3]; 1.25 mg/kg i.p.): protected corticosterone-treated mice from the decrease in the NGF level
- Number of crossings ± S.E.M ([4]; single 1.25 mg/kg i.p. in corticosterone-treated mice): 245.3 ± 22.5
- effect on corticosterone-induced decrease in BDNF level in the hippocampus ([5]; 1.25 mg/kg i.p.): protected corticosterone-treated mice from the decrease in the BDNF level
- effect on corticosterone-induced decrease in sucrose intake ([2]; 1.25 mg/kg i.p.): prevented the decrease in sucrose intake
